Experimental findings from ChEMBL document CHEMBL4715804, “A Fluorescence Polarization Biophysical Assay for the Naegleria DNA Hydroxylase Tet1” (ACS Med Chem Lett, 2016) are described below.

Calls of active or inactive are those of the source. No cut-off for these calls is given here.

In one assay the test system is Naegleria. Nature of the assay: Displacement of sodium 5-(3-(8-(3-carboxy-N-hydroxyacrylamido)octyl)thioureido)-2-(6-hydroxy-3-oxo-3H-xanthen-9-yl)benzoate from Naegleria Tet-1 at 5 mM incubated for 20 mins followed by sodium 5-(3-(8-(3-carboxy-N-hydroxyacrylamido)octyl)thioureido)-2-(6-hydroxy-3-oxo-3H-xanthen-9-yl)benzoate addition and further incubated 4 hrs and measured upto 20 hrs by competition fluorescence polarization assay. To be noted: time hrs <=20.

Assay [1] in a line: Displacement of sodium 5-(3-(8-(3-carboxy-N-hydroxyacrylamido)octyl)thioureido)-2-(6-hydroxy-3-oxo-3H-xanthen-9-yl)benzoate from Naegleria Tet-1 incubated for 20 mins followed by sodium 5-(3-(8-(3-carboxy-N-hydroxyacrylamido)octyl)thioureido)-2-(6-hydroxy-3-oxo-3H-xanthen-9-yl)benzoate addition and further incubated 4 hrs and measured upto 20 hrs by competition fluorescence polarization assay.

A short description of assay [2]: Binding affinity to Naegleria Tet1 assessed as dissociation constant incubated for 4 hrs and measured upto 20 hrs by fluorescence polarization assay. On the technique in general: In fluorescence polarisation assays a small probe gives low polarisation when free and higher when bound to something large.

On to `Nc1nc(=O)n([C@H]2C[C@H](O)[C@@H](CO)O2)cc1CO`, for which the inhibition entry in the assay with Naegleria was “inactive”. Still for that read-out and setting: to `Cc1cn([C@H]2C[C@H](O)[C@@H](CO)O2)c(=O)nc1N` belongs “inactive”. For `O=C(O)CCC(=O)C(=O)O` [ALPHA-KETOGLUTARIC ACID], in assay [1], the half-inhibitory concentration (IC50) came to 250 µM and affinity was put at a Ki of 83 µM. In assay [1], `O=C(O)CC[C@@H](O)C(=O)O` came in with a 50% inhibitory concentration (IC50) of 5200 µM and an inhibition constant Ki of 1700 µM.

On to `O=C(O)c1ccnc(C(=O)O)c1`, for which, in assay [1], the IC50 amounted to 27 µM and the inhibitory constant (Ki) turned out to be 9 µM. As to `O=C(O)/C=C/C(=O)N(O)CCCCCCCCNC(=S)Nc1ccc(-c2c3ccc(=O)cc-3oc3cc(O)ccc23)c(C(=O)O)c1`, in assay [2], the Kd is 0.25 µM. In assay [1], `O=C(O)CNC(=O)C(=O)O` [N-OXALYLGLYCINE] showed an IC50 of 49 µM and a Ki of 16 µM.

What is called IC50 is the concentration needed to halve the response being measured. Broadly, the Ki is a measure of affinity in units of concentration, obtained from inhibition or displacement. A lower Ki goes with a stronger hold on the target. As a reminder, the Kd is the concentration at which binding is half-saturated.
